Test results: US9284304B2, “Substituted pyrimidines as toll-like receptor modulators” (JANSSEN SCIENCES IRELAND UC, priority 2012, dated 2016)

Assays:
[1] = target: T1, human TLR7 (hTLR7) (Homo sapiens, UniProt Q9NYK1); experiment: TLR7 cellular NFκB-luc reporter assay in transiently transfected HEK293 cells; type: cell-based; set-up: unit not given here; details: lowest effective concentration, wild type TLR7, 48 hours incubation
T1 construct: expressed in transfected cells; host or cells: HEK293
T1 sequence (Q9NYK1 27-1049): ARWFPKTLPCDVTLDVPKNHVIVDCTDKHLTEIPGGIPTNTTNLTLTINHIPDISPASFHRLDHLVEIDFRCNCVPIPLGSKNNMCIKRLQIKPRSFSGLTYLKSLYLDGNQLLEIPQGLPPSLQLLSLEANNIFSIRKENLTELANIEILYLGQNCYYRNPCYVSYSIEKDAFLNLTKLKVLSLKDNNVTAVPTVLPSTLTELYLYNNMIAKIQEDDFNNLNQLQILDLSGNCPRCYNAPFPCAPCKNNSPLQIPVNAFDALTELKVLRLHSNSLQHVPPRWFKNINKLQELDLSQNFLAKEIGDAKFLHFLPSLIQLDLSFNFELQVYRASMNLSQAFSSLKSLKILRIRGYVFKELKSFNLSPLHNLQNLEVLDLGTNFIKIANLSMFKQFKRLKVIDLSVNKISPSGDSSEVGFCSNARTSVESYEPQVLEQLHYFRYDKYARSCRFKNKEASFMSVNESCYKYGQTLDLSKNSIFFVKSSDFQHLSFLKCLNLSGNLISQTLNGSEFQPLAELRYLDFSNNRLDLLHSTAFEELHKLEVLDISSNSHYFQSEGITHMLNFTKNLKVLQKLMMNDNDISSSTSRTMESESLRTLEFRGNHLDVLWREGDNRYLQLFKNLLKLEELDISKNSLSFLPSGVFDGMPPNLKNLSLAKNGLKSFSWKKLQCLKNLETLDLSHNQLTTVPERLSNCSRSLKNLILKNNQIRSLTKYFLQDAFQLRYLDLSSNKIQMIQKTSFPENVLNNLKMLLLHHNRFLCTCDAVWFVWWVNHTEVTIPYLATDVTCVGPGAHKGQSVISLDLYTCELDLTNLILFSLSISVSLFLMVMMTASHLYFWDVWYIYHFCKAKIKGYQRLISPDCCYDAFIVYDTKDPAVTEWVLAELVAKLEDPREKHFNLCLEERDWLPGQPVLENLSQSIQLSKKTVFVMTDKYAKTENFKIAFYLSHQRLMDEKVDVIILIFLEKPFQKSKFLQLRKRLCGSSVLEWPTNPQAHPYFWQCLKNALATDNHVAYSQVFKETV
Experimental: (§1) The ability of compounds to activate human TLR7 (hTLR7) and/or TLR8 (hTLR8) was assessed in a cellular reporter assay using HEK293 cells transiently transfected with a TLR7 or TLR8 expression vector and NFκB-luc reporter construct. In one instance the TLR expression construct expresses the respective wild type sequence or a mutant sequence comprising a deletion in the second leucine-rich repeat of the TLR. […] Briefly, HEK293 cells were grown in culture medium (DMEM supplemented with 10% FCS and 2 mM Glutamine). For transfection of cells in 10 cm dishes, cells were detached with Trypsin-EDTA, transfected with a mix of CMV-TLR7 or TLR8 plasmid (750 ng), NFκB-luc plasmid (375 ng) and a transfection reagent and incubated overnight at 37° C. in a humidified 5% CO2 atmosphere. Transfected cells were then detached with Trypsin-EDTA, washed in PBS and resuspended in medium to a density of 1.67×10^5 cells/mL. Thirty microliters of cells were then dispensed into each well in 384-well plates, where 10 μL of compound in 4% DMSO was already present. Following 48 hours incubation at 37° C., 5% CO2, the luciferase activity was determined by adding 15 μl of Steady Lite Plus substrate (Perkin Elmer) to each well and readout performed on a ViewLux ultraHTS microplate imager (Perkin Elmer). Dose response curves were generated from measurements performed in quadruplicates. Lowest effective concentrations (LEC) values, defined as the concentration that induces an effect which is at least two fold above the standard deviation of the assay, were determined for each compound.

[2] = target: T2, human TLR8 (hTLR8) (Homo sapiens, UniProt Q9NR97); experiment: TLR8 cellular NFκB-luc reporter assay in transiently transfected HEK293 cells; type: cell-based; set-up: unit not given here; details: lowest effective concentration, wild type TLR8, 48 hours incubation
T2 construct: expressed in transfected cells; host or cells: HEK293
T2 sequence (Q9NR97 27-1041): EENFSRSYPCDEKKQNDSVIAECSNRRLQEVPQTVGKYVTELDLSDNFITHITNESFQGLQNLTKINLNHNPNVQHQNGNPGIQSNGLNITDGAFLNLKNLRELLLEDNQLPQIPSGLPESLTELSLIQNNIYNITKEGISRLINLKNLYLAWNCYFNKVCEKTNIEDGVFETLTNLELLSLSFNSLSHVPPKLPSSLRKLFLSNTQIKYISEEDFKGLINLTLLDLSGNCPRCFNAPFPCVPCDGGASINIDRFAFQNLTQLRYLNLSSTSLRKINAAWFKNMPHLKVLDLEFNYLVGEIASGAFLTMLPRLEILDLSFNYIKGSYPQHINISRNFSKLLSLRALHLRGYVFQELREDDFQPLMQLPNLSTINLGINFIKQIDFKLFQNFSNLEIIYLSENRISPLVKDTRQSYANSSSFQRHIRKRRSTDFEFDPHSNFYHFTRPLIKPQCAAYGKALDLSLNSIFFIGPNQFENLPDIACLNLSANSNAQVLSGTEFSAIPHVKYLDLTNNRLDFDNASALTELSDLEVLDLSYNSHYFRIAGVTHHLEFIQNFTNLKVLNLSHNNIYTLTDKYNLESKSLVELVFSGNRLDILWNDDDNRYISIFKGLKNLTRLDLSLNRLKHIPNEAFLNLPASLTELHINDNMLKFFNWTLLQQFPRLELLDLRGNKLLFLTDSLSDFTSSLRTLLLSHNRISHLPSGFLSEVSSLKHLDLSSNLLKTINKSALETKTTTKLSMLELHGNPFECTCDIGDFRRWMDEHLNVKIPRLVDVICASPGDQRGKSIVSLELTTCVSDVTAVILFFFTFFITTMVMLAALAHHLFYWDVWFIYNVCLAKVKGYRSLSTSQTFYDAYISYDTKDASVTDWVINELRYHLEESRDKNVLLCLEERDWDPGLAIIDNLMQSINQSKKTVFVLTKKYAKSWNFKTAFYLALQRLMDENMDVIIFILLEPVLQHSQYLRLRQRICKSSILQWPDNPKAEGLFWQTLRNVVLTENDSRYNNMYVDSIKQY
Experimental: as §1

Row | hTLR7 wt (LEC) [1] | hTLR8 wt (LEC) [2] | SMILES
1 | 0.5 | 1.2 | CCCCNc1nc(N)ncc1CCc1ccc2ccccc2n1.Cl [Example 7]
2 | 6.7 | 6.5 | CCCCNc1nc(N)ncc1CCc1ccccc1.Cl [Example 2]
3 | 0.6 | 1.6 | CCCCNc1nc(N)ncc1CCc1ccccn1.Cl [Example 6]
4 | 2.4 | 12 | CCCCNc1nc(N)ncc1CCc1ccc(OC)cc1OC.Cl [Example 3]
5 | 1.2 | 1.4 | CCCCNc1nc(N)ncc1CCc1cccnc1.Cl [Example 5]
6 | 5 | 13 | CCCCNc1nc(N)ncc1CCc1ccccc1OC.Cl [Example 4]
7 | 2.4 | 1.3 | CCCCNc1nc(N)ncc1CC.Cl [Example 1]
8 | 8.1 | 3.6 | CCCCNc1nc(N)ncc1CCc1cccs1.Cl [Example 8]
